The assay addresses T1, streptavidin (Streptomyces avidinii, UniProt P22629).
T1 construct: purchased Molecular Probes (Eugene, Oreg.)
The assay is described as follows: dissociation of SA-1 peptide grafted into YFP from streptavidin coated beads, flow cytometry. It counts as binding. The note with it: SA-1 inserted into YFP after Y145, soluble fusion protein, 1 μM biotin. The method, then: See Baird, G. S. et al. (1999) PNAS USA 96(20):11241-11246, which is herein incorporated by reference. […] See Bessette, P. H., et al. (1999) PNAS USA 96(24):13703-13708, which is herein incorporated by reference. […] Using flow cytometry, the dissociation rate constant of the steptavidin binding fluorescent protein was determined to be 0.02 s^−1.
The soluble protein was isolated using B-PER II bacterial protein extraction reagent (Pierce Biotechnology, Rockford, Ill.) following the manufacturer's protocol. About 10^7 streptavidin coated magnetic beads (Dynal Inc., Brown Deer, Wis.) were added to 40 μl of cell lysate and equilibrated at room temperature for 20 minutes. The beads were washed once in 2 ml of PBS; biotin was added to a final concentration of 1 μM, and immediately analyzed by flow cytometry as above. Lysate from a strain expressing YFP with a T7•tag insertion at the same location was used as a negative control.

T1 sequence (P22629 25-183): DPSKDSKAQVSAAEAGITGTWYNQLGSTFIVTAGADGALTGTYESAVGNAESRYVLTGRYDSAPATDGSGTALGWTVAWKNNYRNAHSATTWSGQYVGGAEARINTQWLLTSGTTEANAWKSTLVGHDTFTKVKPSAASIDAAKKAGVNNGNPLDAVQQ

The sequence RLEICQNVCYYLGTL [SA-1] came in with a dissociation rate constant of 0.02 s⁻¹.

(Values after patent publication US9134309B2, “Polypeptide display libraries and methods of making and using thereof” (The Regents of the University of California, priority 2003, dated 2015).)
